Target: T1, human full-length MKNK1 (Homo sapiens, UniProt Q9BUB5, T385D)
T1 construct: GST (N); purchased Carna Biosciences 02-145; host or cells: insect cells, baculovirus expression system
Test: MKNK1 kinase high ATP assay (TR-FRET)
Type: biochemical
Conditions: high ATP (2 mM), after preincubation with MKNK1; compounds of the present invention (Table 1a)
Experimental: MKNK1-inhibitory activity at high ATP of compounds of the present invention after their preincubation with MKNK1 was quantified employing the TR-FRET-based MKNK1 high ATP assay as described in the following paragraphs.
A recombinant fusion protein of Glutathione-S-Transferase (GST, N-terminally) and human full-length MKNK1 (amino acids 1-424 and T344D of accession number BAA 19885.1), expressed in insect cells using baculovirus expression system and purified via glutathione sepharose affinity chromatography, was purchased from Carna Biosciences (product no 02-145) and used as enzyme. As substrate for the kinase reaction the biotinylated peptide biotin-Ahx-IKKRKLTRRKSLKG (C-terminus in amide form) was used, which can be purchased e.g. from the company Biosyntan (Berlin-Buch, Germany).
For the assay 50 nL of a 100 fold concentrated solution of the test compound in DMSO was pipetted into a black low volume 384 well microtiter plate (Greiner Bio-One, Frickenhausen, Germany), 2 μL of a solution of MKNK1 in aqueous assay buffer [50 mM HEPES pH 7.5, 5 mM MgCl2, 1.0 mM dithiothreitol, 0.005% (v/v) Nonidet-P40 (Sigma)] was added and the mixture was incubated for 15 min at 22° C. to allow pre-binding of the test compounds to the enzyme before the start of the kinase reaction. Then the kinase reaction was started by the addition of 3 μL of a solution of adenosine-tri-phosphate (ATP, 3.3 mM=>final conc. in the 5 μL assay volume is 2 mM) and substrate (0.1 μM=>final conc. in the 5 μL assay volume is 0.06 μM) in assay buffer and the resulting mixture was incubated for a reaction time of 30 min at 22° C. The concentration of MKNK1 was adjusted depending of the activity of the enzyme lot and was chosen appropriate to have the assay in the linear range, typical concentrations were in the range of 0.003 μg/mL. The reaction was stopped by the addition of 5 μL of a solution of TR-FRET detection reagents (5 nM streptavidine-XL665 [Cisbio Bioassays, Codolet, France] and 1 nM anti-ribosomal protein […] (pSer236)-antibody from Invitrogen [#44921G] and 1 nM LANCE EU-W1024 labeled ProteinG [Perkin-Elmer, product no. AD0071]) in an aqueous EDTA-solution (100 mM EDTA, 0.1% (w/v) bovine serum albumin in 50 mM HEPES pH 7.5).
The resulting mixture was incubated for 1 h at 22° C. to allow the formation of complex between the phosphorylated biotinylated peptide and the detection reagents. Subsequently the amount of phosphorylated substrate was evaluated by measurement of the resonance energy transfer from the Eu-chelate to the streptavidine-XL. Therefore, the fluorescence emissions at 620 nm and 665 nm after excitation at 350 nm were measured in a TR-FRET reader, e.g. a Rubystar (BMG Labtechnologies, Offenburg, Germany) or a Viewlux (Perkin-Elmer). The ratio of the emissions at 665 nm and at […] was taken as the measure for the amount of phosphorylated substrate. The data were normalised (enzyme reaction without inhibitor=0% inhibition, all other assay components but no enzyme=100% inhibition). […] Table 1a lists MKNK1 high ATP IC50 values of some compounds of the present invention.

T1 sequence (Q9BUB5 1-424 isoform Q9BUB5-2 T344D): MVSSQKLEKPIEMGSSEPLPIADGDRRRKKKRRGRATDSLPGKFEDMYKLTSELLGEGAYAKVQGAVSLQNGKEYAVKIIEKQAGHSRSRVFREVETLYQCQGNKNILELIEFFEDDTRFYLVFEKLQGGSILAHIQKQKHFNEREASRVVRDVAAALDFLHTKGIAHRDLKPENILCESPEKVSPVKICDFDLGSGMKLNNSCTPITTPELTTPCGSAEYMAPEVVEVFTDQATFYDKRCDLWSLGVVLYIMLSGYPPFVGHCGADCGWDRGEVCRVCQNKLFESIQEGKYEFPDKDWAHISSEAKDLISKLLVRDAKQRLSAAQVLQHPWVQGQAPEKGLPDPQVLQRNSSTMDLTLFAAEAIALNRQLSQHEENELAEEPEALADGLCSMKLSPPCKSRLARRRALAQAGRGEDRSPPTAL

Question: For COc1cc2[nH]ncc2cc1Nc1ncnc2sc3c(c12)CCC(CO)C3 (racemic) [Example 17, (RS)-{4-[(6-Methoxy-1H-indazol-5-yl)amino]-5,6,7,8-tetrahydro[1]benzothieno[2,3-d]pyrimidin-7-yl}methanol], which IC50 is on record?
Answer: 3.2 nM

Question: For COc1cc2[nH]ncc2cc1Nc1ncnc2sc3c(c12)CC[C@](C)(C(=O)N(C)C)C3 [Example 48, (7S) 4-[(6-Methoxy-1H-indazol-5-yl)amino]-N,N,7-trimethyl-5,6,7,8-tetrahydro[1]benzothieno[2,3-d]pyrimidine-7-carboxamide], which IC50 is on record?
Answer: 2.4 nM

Question: CC[C@@]1(C(=O)N(C)C)CCc2c(sc3ncnc(Nc4cc5cn[nH]c5cc4OC)c23)C1 [Example 50, (7R) 7-Ethyl-4-[(6-methoxy-1H-indazol-5-yl)amino]-N,N-dimethyl-5,6,7,8-tetrahydro[1]benzothieno[2,3-d]pyrimidine-7-carboxamide] was tested. Which IC50 did it give?
Answer: 19.6 nM

Question: CC[C@]1(C(=O)N2CCOCC2)CCc2c(sc3ncnc(Nc4cc5cn[nH]c5cc4OC)c23)C1 [Example 63, (7S) {7-Ethyl-4-[(6-methoxy-1H-indazol-5-yl)amino]-5,6,7,8-tetrahydro[1]benzothieno[2,3-d]pyrimidin-7-yl}(morpholin-4-yl)methanone] was tested. Which IC50 did it give?
Answer: 1.8 nM

Question: With COCC1(OC)CCc2c(sc3ncnc(Nc4cc5cn[nH]c5cc4F)c23)C1 (single isomer, unassigned) [Example 45, (7S) or (7R) N-(6-Fluoro-1H-indazol-5-yl)-7-methoxy-7-(methoxymethyl)-5,6,7,8-tetrahydro[1]benzothieno[2,3-d]pyrimidin-4-amine] as the molecule, how does the IC50 read?
Answer: 89 nM

Question: Which IC50 does the source give for CC[C@@]1(C(=O)N(C)OC)CCc2c(sc3ncnc(Nc4cc5cn[nH]c5cc4OC)c23)C1 [Example 66, (7R) 7-Ethyl-N-methoxy-4-[(6-methoxy-1H-indazol-5-yl)amino]-N-methyl-5,6,7,8-tetrahydro[1]benzothieno[2,3-d]pyrimidine-7-carboxamide] here?
Answer: 20.4 nM

Question: With COc1cc2[nH]ncc2cc1Nc1ncnc2sc3c(c12)CCCC3 [Example 2, N-(6-methoxy-1H-indazol-5-yl)-5,6,7,8-tetrahydro[1]benzothieno[2,3-d]pyrimidin-4-amine] as the molecule, how does the IC50 read?
Answer: 13.5 nM

Question: For CC(C)(O)C1CCc2c(sc3ncnc(Nc4ccc5[nH]ncc5c4)c23)C1 (racemic) [Example 4, (RS)-2-[4-(1H-Indazol-5-ylamino)-5,6,7,8-tetrahydro[1]benzothieno[2,3-d]pyrimidin-7-yl]propan-2-ol], which IC50 is on record?
Answer: 39.1 nM

Question: With COc1cc2[nH]ncc2cc1Nc1ncnc2sc3c(c12)CC[C@](C)(C(=O)N(C)OC)C3 [Example 58, (7S) N-Methoxy-4-[(6-methoxy-1H-indazol-5-yl)amino]-N,7-dimethyl-5,6,7,8-tetrahydro[1]benzothieno[2,3-d]pyrimidine-7-carboxamide] as the molecule, how does the IC50 read?
Answer: 2.5 nM

Question: For [N-]=[N+]=NCC1CCc2c(sc3ncnc(Nc4ccc5[nH]ncc5c4)c23)C1 (racemic) [Example 6, (RS)-7-(Azidomethyl)-N-(1H-indazol-5-yl)-5,6,7,8-tetrahydro[1]benzothieno[2,3-d]pyrimidin-4-amine], which IC50 is on record?
Answer: 124 nM

Question: For CC[C@@]1(C(=O)N2CCOCC2)CCc2c(sc3ncnc(Nc4cc5cn[nH]c5cc4OC)c23)C1 [Example 62, (7R) {7-Ethyl-4-[(6-methoxy-1H-indazol-5-yl)amino]-5,6,7,8-tetrahydro[1]benzothieno[2,3-d]pyrimidin-7-yl}(morpholin-4-yl)methanone], which IC50 is on record?
Answer: 31.7 nM

Question: For c1nc(Nc2ccc3[nH]ncc3c2)c2c3c(sc2n1)CCCC3 [Example 3, N-(1H-Indazol-5-yl)-5,6,7,8-tetrahydro[1]benzothieno[2,3-d]pyrimidin-4-amine], which IC50 is on record?
Answer: 18.5 nM

Question: How did the IC50 turn out when NCC1CCc2c(sc3ncnc(Nc4ccc5[nH]ncc5c4)c23)C1 (racemic) [Example 7, (RS)-7-(Aminomethyl)-N-(1H-indazol-5-yl)-5,6,7,8-tetrahydro[1]benzothieno[2,3-d]pyrimidin-4-amine] was run?
Answer: 155 nM

From patent publication US20160159816A1, “SUBSTITUTED THIENOPYRIMIDINES AND PHARMACEUTICAL USE THEREOF” (BAYER PHARMA AKTIENGESELLSCHAFT, priority 2013, published 2016)
